In patent publication US6541482B2, “Carbocyclic nucleoside agents useful as selective inhibitors of proinflammatory cytokines” (priority 1993, dated 2003) one finds IC50, protection and mice killed data, which are given here for two compounds.

In test [1] the test system is TNF-α. Nature of the test: Inhibition of TNF-α production by LPS-stimulated human monocyte-derived macrophages. It is filed as cell-based. The conditions noted are these: Macrophage; monocyte-derived macrophages from human peripheral blood, stimulated with LPS, 18 hours of culture; dose response 500 μM-0.1 μM; read-out: IC50 for inhibiting TNF-α levels. As to the method: Monocyte-derived macrophages stimulated with bacterial lipopolysaccharide (LPS) produce high levels of TNF-α (14.87±1.02 ηg/mL) during 18 hours of culture.

Test [2] has as its system lethal effects of LPS. Put plainly: D-galactosamine animal model of septic shock (protection against lethal effects of LPS). The format is in vivo. The following applies: treated about 1 hour before i.p. challenge of D-galactosamine and LPS, 100 mg/kg i.p. for the azido compound; for protection: mice, vehicle HBSS 0% protection; for mice killed: vehicle HBSS 6 out of 6 killed by 18 hours. How it is done: Mice treated with the vehicle Hanks Balanced Salt Solution (HBSS) approximately 1 hour before intraperitoneal (i.p.) challenge of D-galactosamine and LPS, succumb to disease by 18 hours after challenge (e.g. 6 out of 6 mice killed; 0% protection). […] Positive-control PTX afforded […] protection in this model (3 out of 6 mice killed; 50% protection).

Broadly, the IC50 is the concentration at which inhibition is half-maximal. As for `[N-]=[N+]=NC1CCC(n2cnc3c(N)ncnc32)C1` (stereo not drawn) [1R,3R-trans-1-(9-adenyl)-3-azidocyclopentane], the IC50 in test [1] came out at 5.48 ± 1.3 µM. Besides, in test [2], the protection amounted to 66% and the mice killed is 2 out of 6.

On to `CC(=O)CCCCn1c(=O)c2c(ncn2C)n(C)c1=O` [Pentoxifylline], for which, in test [1], the IC50 was 26.3 ± 16 µM. In addition, in test [2], the protection came out at 50% and the mice killed is given as 3 out of 6.
